Key:
[1] = system: microbivorous nematodes; test: Effect on beneficial nematodes in covered pots of silt loam; format: in vivo
Procedure: In this study, the soil was naturally infested with four species of nematodes, two of which were deleterious and two beneficial, and observations were made of both the nematode survival and the growth of the soybean plants.
Stock solutions of hydrogen cyanamide at 1.0% by weight and propionic acid at 5.0% by weight, both in water, were prepared, the hydrogen cyanamide from a phosphate-buffered 50% aqueous solution. Planting pots measuring 10 cm in diameter, each containing 1 kg of soil, were used. The soil was silt loam from a cotton field, pH 6.2, CEC<10 meq/100 g soil, organic matter<1.0%. The treatment chemicals were combined in various dilutions such that 100 mL of the combined dilutions contained the desired amount of each chemical for each test. The combined dilutions were then applied to the soil surface in each pot, at 100 mL of combined dilution per pot. The dilutions were selected to achieve target application rates expressed in milligrams of the treatment chemical per kilogram of soil, with 1 milligram of treatment chemical per kilogram of soil being approximately equal to 2 kilograms of the chemical per hectare of soil or 2 pounds of the chemical per acre of soil.
Immediately after the treatment chemicals were applied, each pot was covered by a thick (1.5 mil), clear, low-density polyethylene bag. After twelve days, the bags were removed and soil samples were taken from each pot for nematological analysis by the salad bowl technique of Rodriguez-Kabana, R., and M. H. Pope, Nematropica, 11: 175-186 (1981). The results of these analyses are listed in Table I as pre-plant test results. The results for the two deleterious nematodes are also shown as plots of the number of nematodes vs. the hydrogen cyanamide application rate in FIGS. 1 and 2.
After the polyethylene bags were removed, each pot was planted with Hutcheson soybean seeds at 5 seeds per pot, and the seeds were allowed to germinate and the plants to grow for 45 days. The resulting plants were then removed from the pots, the root systems were washed, and the number of plants in each pot was determined. The weights of both fresh shoots and roots were also determined as well as the shoot height and the relative health of the root system, using a subjective index. Soil samples were also collected, and the soil and roots were incubated to determine nematode populations. Treatments were arranged in randomized complete block design with seven replications per treatment, and statistical evaluation of the data was performed with analyses of variance (ANOVA) and standard regression procedures. Fischer's Least Significant Difference at p 0.05 was calculated when appropriate. The results of these tests are listed as final test results in Tables II, III, and IV, with nematode populations in the soil listed in Table II, the nematode populations in the root systems in Table III, and the plant and root parameters of the soybean shoots in Table IV.

[2] = system: all weeds; test: Herbicidal activity, phosphate-free cyanamide and propionic acid, post-emergence, uncovered pots; format: in vivo
From the text: (§1) The procedures in this example differed from those of Example 2, however, by the use of hydrogen cyanamide crystals free of phosphate ion to prepare the aqueous hydrogen cyanamide solution, by the use of post-emergence application, and by the omission of any covering of the pots during any part of the test. Observations were made for total weed growth, and individual observations were also made for yellow nutsedge, crabgrass, sicklepod, and momingglory. Stock solutions of hydrogen cyanamide at 1.25% by weight and propionic acid at 5.0% by weight, both in water, were prepared as before, except that the hydrogen cyanamide solution, as noted above, was prepared by dissolving hydrogen cyanamide crystals in water in the absence of phosphate ion. […] The weeds were allowed to grow for three weeks before the treatment chemicals were applied. […] Data analyses were performed in the same manner as Examples 1 and 2. Table IX lists the results in weeds per pot for all weeds, Table X for yellow nutsedge, Table XI for crabgrass, Table XII for sicklepod, and Table XIII for morningglory, all both with propionic acid alone at various application […]

[3] = system: crabgrass; test: as above; format: in vivo, Digitaria sanguinalis
From the text: as §1

[4] = system: sicklepod; test: as above; format: in vivo, Senna obtusifolia
From the text: (§2) The procedures in this example differed from those of Example 2, however, by the use of hydrogen cyanamide crystals free of phosphate ion to prepare the aqueous hydrogen cyanamide solution, by the use of post-emergence application, and by the omission of any covering of the pots during any part of the test. Observations were made for total weed growth, and individual observations were also made for yellow nutsedge, crabgrass, sicklepod, and momingglory. Stock solutions of hydrogen cyanamide at 1.25% by weight and propionic acid at 5.0% by weight, both in water, were prepared as before, except that the hydrogen cyanamide solution, as noted above, was prepared by dissolving hydrogen cyanamide crystals in water in the absence of phosphate ion. […] The weeds were allowed to grow for three weeks before the treatment chemicals were applied. […] Data analyses were performed in the same manner as Examples 1 and 2. Table IX lists the results in weeds per pot for all weeds, Table X for yellow nutsedge, Table XI for crabgrass, Table XII for sicklepod, and Table XIII for morningglory, all both with propionic acid alone at various application rates and with […]

[5] = system: morningglory; test: as above; format: in vivo, Ipomoea spp.
From the text: as §2

[6] = microbivorous nematodes, in vivo, 57 d, pH 6.2
[7] = 6 d after treatment, C2H5CO2H 100 mg/kg soil
[8] = 6 d after treatment, C2H5CO2H 200 mg/kg soil
[9] = 6 d after treatment, C2H5CO2H 300 mg/kg soil
[10] = 6 d after treatment, C2H5CO2H 400 mg/kg soil
[11] = 6 d after treatment, C2H5CO2H 500 mg/kg soil
[12] = 13 d after treatment, C2H5CO2H 100 mg/kg soil
[13] = 13 d after treatment, C2H5CO2H 200 mg/kg soil
[14] = 13 d after treatment, C2H5CO2H 300 mg/kg soil
[15] = 13 d after treatment, C2H5CO2H 400 mg/kg soil
[16] = 13 d after treatment, C2H5CO2H 500 mg/kg soil
[17] = 20 d after treatment, C2H5CO2H 100 mg/kg soil
[18] = 20 d after treatment, C2H5CO2H 200 mg/kg soil
[19] = 20 d after treatment, C2H5CO2H 300 mg/kg soil
[20] = 20 d after treatment, C2H5CO2H 400 mg/kg soil
[21] = 20 d after treatment, C2H5CO2H 500 mg/kg soil
[22] = 6 d after treatment, cyanamide 150 mg/kg soil
[23] = 13 d after treatment, cyanamide 150 mg/kg soil
[24] = 20 d after treatment, cyanamide 150 mg/kg soil
[25] = hydrogen cyanamide 125 mg/kg of soil alone, all intervals

For `CCC(=O)O` [C2H5CO2H, propionic acid], the “Surviving Nematodes: Microbivorous” value ([1]; microbivorous nematodes, in vivo, 12 d, pH 6.2) was 66 per 100 mL of soil, the “Surviving Nematodes in Root System: Microbivorous” value (“Surviving Nematodes in Root System” for short) [1, 6] was 96 Per Pot and the “Surviving Nematodes: Microbivorous” value [1, 6] was 45 per 100 mL of soil. The “Weeds Per Pot: All Weeds” value [2, 7] was 22.4, the “Weeds Per Pot: All Weeds” value [2, 8] was 12.6 and the “Weeds Per Pot: All Weeds” value [2, 9] was 5.7. For the same compound, the “Weeds Per Pot: All Weeds” value [2, 10] was 4, the “Weeds Per Pot: All Weeds” value [2, 11] was 3.4 and the “Weeds Per Pot: All Weeds” value [2, 12] was 24.4. The “Weeds Per Pot: All Weeds” value [2, 13] was 14.9, the “Weeds Per Pot: All Weeds” value [2, 14] was 8.6 and the “Weeds Per Pot: All Weeds” value [2, 15] was 7.6. For the same compound, the “Weeds Per Pot: All Weeds” value [2, 16] was 6.7, the “Weeds Per Pot: All Weeds” value [2, 17] was 25.1 and the “Weeds Per Pot: All Weeds” value [2, 18] was 15.9. The “Weeds Per Pot: All Weeds” value [2, 19] was 10, the “Weeds Per Pot: All Weeds” value [2, 20] was 8.4 and the “Weeds Per Pot: All Weeds” value [2, 21] was 8. The “Herbicidal activity of propionic acid alone” value ([2]; post-emergence, uncovered pots) was “demonstrated herbicidal activity on its own”, the “Weeds Per Pot: Crabgrass” value [3, 7] was 9.9 and the “Weeds Per Pot: Crabgrass” value [3, 8] was 5.1. The “Weeds Per Pot: Crabgrass” value [3, 9] was 3, the “Weeds Per Pot: Crabgrass” value [3, 10] was 0.6 and the “Weeds Per Pot: Crabgrass” value [3, 11] was 0.6. The “Weeds Per Pot: Crabgrass” value [3, 12] was 10.6, the “Weeds Per Pot: Crabgrass” value [3, 13] was 5.4 and the “Weeds Per Pot: Crabgrass” value [3, 14] was 3.9. The “Weeds Per Pot: Crabgrass” value [3, 15] was 1.3, the “Weeds Per Pot: Crabgrass” value [3, 16] was 0.7 and the “Weeds Per Pot: Crabgrass” value [3, 17] was 11.6. The “Weeds Per Pot: Crabgrass” value [3, 18] was 6, the “Weeds Per Pot: Crabgrass” value [3, 19] was 3.4 and the “Weeds Per Pot: Crabgrass” value [3, 20] was 1.3. The “Weeds Per Pot: Crabgrass” value [3, 21] was 1.6, the “Weeds Per Pot: Sicklepod” value [4, 7] was 3.1 and the “Weeds Per Pot: Sicklepod” value [4, 8] was 1.3. The “Weeds Per Pot: Sicklepod” value [4, 9] was 0.9, the “Weeds Per Pot: Sicklepod” value [4, 10] was 0.4 and the “Weeds Per Pot: Sicklepod” value [4, 11] was 0.7. For the same compound, the “Weeds Per Pot: Sicklepod” value [4, 12] was 3.6, the “Weeds Per Pot: Sicklepod” value [4, 13] was 2.4 and the “Weeds Per Pot: Sicklepod” value [4, 14] was 1.4. For the same compound, the “Weeds Per Pot: Sicklepod” value [4, 15] was 1.6, the “Weeds Per Pot: Sicklepod” value [4, 16] was 2 and the “Weeds Per Pot: Sicklepod” value [4, 17] was 3.1. For the same compound, the “Weeds Per Pot: Sicklepod” value [4, 18] was 2.3, the “Weeds Per Pot: Sicklepod” value [4, 19] was 1.9 and the “Weeds Per Pot: Sicklepod” value [4, 20] was 1.9. The “Weeds Per Pot: Sicklepod” value [4, 21] was 2.1, the “Weeds Per Pot: Morningglory” value [5, 7] was 7 and the “Weeds Per Pot: Morningglory” value [5, 8] was 2.1. For the same compound, the “Weeds Per Pot: Morningglory” value [5, 9] was 0, the “Weeds Per Pot: Morningglory” value [5, 10] was 0 and the “Weeds Per Pot: Morningglory” value [5, 11] was 0. For the same compound, the “Weeds Per Pot: Morningglory” value [5, 12] was 7.3, the “Weeds Per Pot: Morningglory” value [5, 13] was 2.1 and the “Weeds Per Pot: Morningglory” value [5, 14] was 0. The “Weeds Per Pot: Morningglory” value [5, 15] was 0, the “Weeds Per Pot: Morningglory” value [5, 16] was 0 and the “Weeds Per Pot: Morningglory” value [5, 17] was 7.3. For the same compound, the “Weeds Per Pot: Morningglory” value [5, 18] was 2.1, the “Weeds Per Pot: Morningglory” value [5, 19] was 0 and the “Weeds Per Pot: Morningglory” value [5, 20] was 0. For the same compound, the “Weeds Per Pot: Morningglory” value [5, 21] was 0.
With `N#CN` [Cyanamide, hydrogen cyanamide] the “Surviving Nematodes: Microbivorous” value ([1]; 12 d after treatment, pre-plant, cyanamide 20 mg/kg soil) was 92 per 100 mL of soil, the “Surviving Nematodes: Microbivorous” value ([1]; 12 d after treatment, pre-plant, cyanamide 40 mg/kg soil) was 86 per 100 mL of soil and the “Surviving Nematodes: Microbivorous” value ([1]; 12 d after treatment, pre-plant, cyanamide 60 mg/kg soil) was 96 per 100 mL of soil. The “Surviving Nematodes: Microbivorous” value ([1]; 12 d after treatment, pre-plant, cyanamide 80 mg/kg soil) was 144 per 100 mL of soil, the “Surviving Nematodes: Microbivorous” value ([1]; 12 d after treatment, pre-plant, cyanamide 120 mg/kg soil) was 75 per 100 mL of soil and the “Surviving Nematodes: Microbivorous” value ([1]; 57 d after treatment, 45 d after planting, cyanamide 20 mg/kg soil) was 132 per 100 mL of soil. For the same compound, the “Surviving Nematodes: Microbivorous” value ([1]; 57 d after treatment, 45 d after planting, cyanamide 40 mg/kg soil) was 121 per 100 mL of soil, the “Surviving Nematodes: Microbivorous” value ([1]; 57 d after treatment, 45 d after planting, cyanamide 60 mg/kg soil) was 78 per 100 mL of soil and the “Surviving Nematodes: Microbivorous” value ([1]; 57 d after treatment, 45 d after planting, cyanamide 80 mg/kg soil) was 99 per 100 mL of soil. The “Surviving Nematodes: Microbivorous” value ([1]; 57 d after treatment, 45 d after planting, cyanamide 120 mg/kg soil) was 52 per 100 mL of soil, the “Surviving Nematodes in Root System” value ([1]; 57 d after treatment, cyanamide 20 mg/kg soil) was 176.9 Per Pot and the “Surviving Nematodes in Root System” value ([1]; 57 d after treatment, cyanamide 40 mg/kg soil) was 126.9 Per Pot. The “Surviving Nematodes in Root System” value ([1]; 57 d after treatment, cyanamide 60 mg/kg soil) was 118 Per Pot, the “Surviving Nematodes in Root System” value ([1]; 57 d after treatment, cyanamide 80 mg/kg soil) was 113 Per Pot and the “Surviving Nematodes in Root System” value ([1]; 57 d after treatment, cyanamide 120 mg/kg soil) was 123 Per Pot. For the same compound, the “Weeds Per Pot: All Weeds” value [2, 22] was 6.3, the “Weeds Per Pot: All Weeds” value [2, 23] was 7.7 and the “Weeds Per Pot: All Weeds” value [2, 24] was 10.1. The “Total weeds per pot” value [2, 25] was “less than ten total weeds per pot”, the “Weeds Per Pot: Crabgrass” value [3, 22] was 0 and the “Weeds Per Pot: Crabgrass” value [3, 23] was 0.4. For the same compound, the “Weeds Per Pot: Crabgrass” value [3, 24] was 0.3, the “Crabgrass weeds per pot” value [3, 25] was “about one or fewer crabgrass weeds per pot” and the “Weeds Per Pot: Sicklepod” value [4, 22] was 0.6. For the same compound, the “Weeds Per Pot: Sicklepod” value [4, 23] was 1.4, the “Weeds Per Pot: Sicklepod” value [4, 24] was 1 and the “Sicklepod weeds per pot” value [4, 25] was “about one or fewer sicklepod weeds per pot”. For the same compound, the “Weeds Per Pot: Morningglory” value [5, 22] was 3.3, the “Weeds Per Pot: Morningglory” value [5, 23] was 2.7 and the “Weeds Per Pot: Morningglory” value [5, 24] was 2.9. For the same compound, the “Morningglory weeds per pot” value [5, 25] was “about three or fewer momingglory weeds per pot”.

Source: patent publication US20070116781A1, “Hydrogen Cyanamide Pesticide Formulations” (priority 2005, published 2007)
